From patent US10383844B2, “Methods for treating pulmonary fibrosis using chromenone derivatives” (College of Medicine Pochon Cha University Industry—Academic …, priority 2017, dated 2019)

What was measured:
[1] = test system: radiation-induced pulmonary fibrosis; experiment: Small animal model of radiation-induced pulmonary fibrosis (local lung irradiation); format: in vivo; settings: C57BL/6 male mouse, left lung 75 Gy, 13.6 mg/kg intraperitoneally three times a week, FIG. 4(B)
Protocol: To identify an anti-pulmonary fibrosis effect according to a production of HSP27 dimers in a small animal model on lung side effects with clinically analogous irradiation, the small animal model was exposed to a radiation dose in a range of high dose clinical radiotherapy to induce a pulmonary fibrosis process.
As shown in FIG. 4(A), a 10 week-old C57BL/6 male mouse was anesthetized with an anesthetic mixture of 30 mg/kg Zoletil and 10 mg/kg Rompun, after which a left lung of the mouse was exposed to a high dose radiation of 75 Gy in a 3 mm range by using X-Rad 320 (Precision, North Branford, Conn., USA). Then, Compound 1 of the present invention was intraperitoneally administered to the mouse at a 13.6 mg/kg concentration three times a week. During its sacrifice, the mouse was anesthetized, after which 10% formalin was injected into the anesthetized mouse through an airway thereof to fix its lung, such that a tissue sample was prepared by using a paraffin embedding.
An amount of collagen was histologically identified through Masson's trichrome dyeing to compare degrees of pulmonary fibrosis with each other.

[2] = test system: L132 cells; experiment: Degree of radiation-induced EMT in L132 cells (western blots); format: cell-based; settings: L132, 0.1 μM, 1 hour later radiation 5 Gy, 48 hours, FIG. 3(B)
Protocol: (§1) For the experiment, L132 cells were cultured at 37° C. in a 5% CO2 incubator by using an RPMI 1640 (RPMI, GIBCO-Invitrogen, Paisley, Scotland, UK) medium containing 10% FBS and 1× Antibiotic-Antimycotic (GIBCO-Invitrogen, Paisley, Scotland, UK).
To carry out the western blots, the treated cells were respectively washed twice with 1×PBS (0.14 M NaCl, 2.68 mM KCl, 10 mM Na2HPO4, 1.83 mM KH2PO4), after which the resulting cells were dissolved in a protein lysis buffer (100 mM Tris-HCl (pH 7.5), 50 mM NaCl, 5 mM EDTA (pH 8.0), 0.5% NP-40, 0.5% Sodium deoxycholate, 50 mM β-glycerophosphate, 0.1 mM Na3VO4, 50 mM NaF). A cell suspension was centrifuged at 13000 rpm for 30 minutes, after which only a supernatant thereof was taken out, such that 1% BSA solution was injected by 8, 6, 4, 2 and 0 μL into Protein Dye 1 mL as a standard by using a Bradford assay and 2 μL of the supernatant was added thereinto. The resulting solution was divided by 200 μL into each of a 96-well plate, after which the resulting plate was put into an ELISA reader to measure an optical observance thereof at an wavelength of 595 nm, such that a 6× sample buffer (0.35 M Tris (pH 6.8), 3% glycerol, 1% Sodium Dodecyl Sulfate, 6 mM Dithiothreitol) was injected to make a sample containing the same amount of protein. Then, the resulting sample was soaked in 100° C. water and boiled for 5 minutes and the same amount of protein was analyzed by using SDS-PAGE. A primary antibody used for the western blots was anti-HSP27 and β-actin (Santacruz, sc-13132 and sc-47778), and also anti-E-cadherin (BD, #610181), anti-Vimentin (BD, #550513), anti-Fibronectin (BD, #610077), anti-snail (Cell signaling, #3895S), anti-alpha-smooth muscle actin (Sigma, A5228), and anti-Zo-1 (Life technologies, #402200) were used. A secondary antibody used was Goat anti rabbit and Goat anti mouse (Santacruz, sc-2004 and sc-2005). […]

[3] = test system: L132 cells; experiment: Degree of EMT induced by TGF-beta in L132 cells (western blots); format: cell-based; settings: L132, 0.1 μM, 1 hour later TGF-beta 5 ng/mL for 48 hours, FIG. 3(A)
Protocol: as §1
To carry out the western blots, the treated cells were respectively washed twice with 1×PBS (0.14 M NaCl, 2.68 mM KCl, 10 mM Na2HPO4, 1.83 mM KH2PO4), after which the resulting cells were dissolved in a protein lysis buffer (100 mM Tris-HCl (pH 7.5), 50 mM NaCl, 5 mM EDTA (pH 8.0), 0.5% NP-40, 0.5% Sodium deoxycholate, 50 mM β-glycerophosphate, 0.1 mM Na3VO4, 50 mM NaF). A cell suspension was centrifuged at 13000 rpm for 30 minutes, after which only a supernatant thereof was taken out, such that 1% BSA solution was injected by 8, 6, 4, 2 and 0 μL into Protein Dye 1 mL as a standard by using a Bradford assay and 2 μL of the supernatant was added thereinto. The resulting solution was divided by 200 μL into each of a 96-well plate, after which the resulting plate was put into an ELISA reader to measure an optical observance thereof at an wavelength of 595 nm, such that a 6× sample buffer (0.35 M Tris (pH 6.8), 3% glycerol, 1% Sodium Dodecyl Sulfate, 6 mM Dithiothreitol) was injected to make a sample containing the same amount of protein. Then, the resulting sample was soaked in 100° C. water and boiled for 5 minutes and the same amount of protein was analyzed by using SDS-PAGE. A primary antibody used for the western blots was anti-HSP27 and β-actin (Santacruz, sc-13132 and sc-47778), and also anti-E-cadherin (BD, #610181), anti-Vimentin (BD, #550513), anti-Fibronectin (BD, #610077), anti-snail (Cell signaling, #3895S), anti-alpha-smooth muscle actin (Sigma, A5228), and anti-Zo-1 (Life technologies, #402200) were used. A secondary antibody used was Goat anti rabbit and Goat anti mouse (Santacruz, sc-2004 and sc-2005).
To identify a degree of EMT according to a production of altered HSP27 dimers in cells, L132, a normal lung cell, was treated with Compound 1 of the present invention at a 0.1 μM concentration, and in 1 hour later the cell was treated with TGF-beta at a 5 ng/mL concentration for 48 hours. Then, a cell culture and western blots were performed in the same method as the above Experimental Example 1.

Cc1cc(=O)c2c(OCC3CS3)cc(OCC3CS3)cc2o1 (stereo not drawn)
melting point: 95 to 96 °C

Cc1cc(=O)c2c(O)cc(OCC3CS3)cc2o1 (stereo not drawn) [Compound 1, 5-hydroxy-2-methyl-7-(thiirane-2-ylmethoxy)-4H-chromene-4-one]
immune response lesion in locally irradiated lung region (naked eye) [1]: the lesion was recovered | expression of E-cadherin [2]: mitigated a decrease | expression of Twist (marker of mesenchymal cells) [2]: inhibited an increase | expression of Zo-1 [2]: mitigated a decrease | altered HSP dimers [3]: increasing altered HSP dimers in a dose-dependent manner | expression of E-cadherin (marker of epithelial cells) [3]: mitigating a decrease | expression of Fibronectin (marker of mesenchymal cells) [3]: inhibiting an increase | expression of Snail (marker of mesenchymal cells) [3]: inhibiting an increase
